± gives the expanded uncertainty stated by the source.
Test: xn = mol fraction of the nth substance listed
Settings: for mass density: 101 kPa, Liquid

## CCCCCCCCO [octan-1-ol] + CCCCCCC
288.15 K, x2 = 0.0516
  surface tension liquid-gas: 26.75 ± 0.31 mN/m
288.15 K, x2 = 0.0995
  surface tension liquid-gas: 26.18 ± 0.3 mN/m
288.15 K, x2 = 0.1845
  surface tension liquid-gas: 25.05 ± 0.3 mN/m
288.15 K, x2 = 0.3346
  surface tension liquid-gas: 23.74 ± 0.29 mN/m
288.15 K, x2 = 0.4142
  surface tension liquid-gas: 23.12 ± 0.29 mN/m
288.15 K, x2 = 0.5034
  surface tension liquid-gas: 22.6 ± 0.28 mN/m
288.15 K, x2 = 0.6074
  surface tension liquid-gas: 22.16 ± 0.28 mN/m
288.15 K, x2 = 0.6639
  surface tension liquid-gas: 21.9 ± 0.28 mN/m
288.15 K, x2 = 0.8325
  surface tension liquid-gas: 21.24 ± 0.28 mN/m
288.15 K, x2 = 0.9105
  surface tension liquid-gas: 20.94 ± 0.27 mN/m
288.15 K, x2 = 0.9561
  surface tension liquid-gas: 20.87 ± 0.27 mN/m
288.15 K, x2 = 0.0514
  mass density: 822.18 ± 0.45 kg/m3
288.15 K, x2 = 0.1001
  mass density: 816.02 ± 0.46 kg/m3
288.15 K, x2 = 0.2015
  mass density: 802.93 ± 0.48 kg/m3
288.15 K, x2 = 0.3082
  mass density: 788.6 ± 0.5 kg/m3
288.15 K, x2 = 0.4054
  mass density: 775.17 ± 0.52 kg/m3
288.15 K, x2 = 0.517
  mass density: 759.5 ± 0.54 kg/m3
288.15 K, x2 = 0.6305
  mass density: 743.28 ± 0.56 kg/m3
288.15 K, x2 = 0.7114
  mass density: 731.48 ± 0.58 kg/m3
288.15 K, x2 = 0.8136
  mass density: 716.21 ± 0.6 kg/m3
288.15 K, x2 = 0.9061
  mass density: 702.2 ± 0.62 kg/m3
288.15 K, x2 = 0.9518
  mass density: 695.28 ± 0.63 kg/m3
293.15 K, x2 = 0.0564
  surface tension liquid-gas: 26.14 ± 0.3 mN/m
293.15 K, x2 = 0.1057
  surface tension liquid-gas: 25.54 ± 0.3 mN/m
293.15 K, x2 = 0.2084
  surface tension liquid-gas: 24.34 ± 0.29 mN/m
293.15 K, x2 = 0.3112
  surface tension liquid-gas: 23.38 ± 0.29 mN/m
293.15 K, x2 = 0.4066
  surface tension liquid-gas: 22.59 ± 0.28 mN/m
293.15 K, x2 = 0.5114
  surface tension liquid-gas: 21.96 ± 0.28 mN/m
293.15 K, x2 = 0.6092
  surface tension liquid-gas: 21.52 ± 0.28 mN/m
293.15 K, x2 = 0.7164
  surface tension liquid-gas: 20.99 ± 0.27 mN/m
293.15 K, x2 = 0.8124
  surface tension liquid-gas: 20.62 ± 0.27 mN/m
293.15 K, x2 = 0.8965
  surface tension liquid-gas: 20.48 ± 0.27 mN/m
293.15 K, x2 = 0.9573
  surface tension liquid-gas: 20.26 ± 0.27 mN/m
293.15 K, x2 = 0.0514
  mass density: 818.71 ± 0.46 kg/m3
293.15 K, x2 = 0.1001
  mass density: 812.51 ± 0.47 kg/m3
293.15 K, x2 = 0.2015
  mass density: 799.33 ± 0.48 kg/m3
293.15 K, x2 = 0.3082
  mass density: 784.92 ± 0.5 kg/m3
293.15 K, x2 = 0.4054
  mass density: 771.41 ± 0.52 kg/m3
293.15 K, x2 = 0.517
  mass density: 755.65 ± 0.54 kg/m3
293.15 K, x2 = 0.6305
  mass density: 739.34 ± 0.56 kg/m3
293.15 K, x2 = 0.7114
  mass density: 727.47 ± 0.58 kg/m3
293.15 K, x2 = 0.8136
  mass density: 712.11 ± 0.6 kg/m3
293.15 K, x2 = 0.9061
  mass density: 698.04 ± 0.62 kg/m3
293.15 K, x2 = 0.9518
  mass density: 691.08 ± 0.63 kg/m3
298.15 K, x2 = 0.0541
  surface tension liquid-gas: 25.64 ± 0.3 mN/m
298.15 K, x2 = 0.1083
  surface tension liquid-gas: 25.03 ± 0.3 mN/m
298.15 K, x2 = 0.2004
  surface tension liquid-gas: 23.91 ± 0.29 mN/m
298.15 K, x2 = 0.3137
  surface tension liquid-gas: 22.82 ± 0.28 mN/m
298.15 K, x2 = 0.405
  surface tension liquid-gas: 22.09 ± 0.28 mN/m
298.15 K, x2 = 0.5089
  surface tension liquid-gas: 21.44 ± 0.28 mN/m
298.15 K, x2 = 0.6085
  surface tension liquid-gas: 20.94 ± 0.27 mN/m
298.15 K, x2 = 0.7107
  surface tension liquid-gas: 20.46 ± 0.27 mN/m
298.15 K, x2 = 0.8072
  surface tension liquid-gas: 20.15 ± 0.27 mN/m
298.15 K, x2 = 0.9071
  surface tension liquid-gas: 19.82 ± 0.27 mN/m
298.15 K, x2 = 0.9536
  surface tension liquid-gas: 19.64 ± 0.27 mN/m
298.15 K, x2 = 0.0514
  mass density: 815.21 ± 0.46 kg/m3
298.15 K, x2 = 0.1001
  mass density: 808.98 ± 0.47 kg/m3
298.15 K, x2 = 0.2015
  mass density: 795.72 ± 0.49 kg/m3
298.15 K, x2 = 0.3082
  mass density: 781.22 ± 0.51 kg/m3
298.15 K, x2 = 0.4054
  mass density: 767.63 ± 0.53 kg/m3
298.15 K, x2 = 0.517
  mass density: 751.77 ± 0.55 kg/m3
298.15 K, x2 = 0.6305
  mass density: 735.37 ± 0.57 kg/m3
298.15 K, x2 = 0.7114
  mass density: 723.44 ± 0.59 kg/m3
298.15 K, x2 = 0.8136
  mass density: 707.99 ± 0.61 kg/m3
298.15 K, x2 = 0.9061
  mass density: 693.84 ± 0.63 kg/m3
298.15 K, x2 = 0.9518
  mass density: 686.85 ± 0.64 kg/m3
303.15 K, x2 = 0.0504
  surface tension liquid-gas: 25.18 ± 0.3 mN/m
303.15 K, x2 = 0.1033
  surface tension liquid-gas: 24.57 ± 0.29 mN/m
303.15 K, x2 = 0.2052
  surface tension liquid-gas: 23.46 ± 0.29 mN/m
303.15 K, x2 = 0.3108
  surface tension liquid-gas: 22.37 ± 0.28 mN/m
303.15 K, x2 = 0.4134
  surface tension liquid-gas: 21.56 ± 0.28 mN/m
303.15 K, x2 = 0.5153
  surface tension liquid-gas: 20.94 ± 0.27 mN/m
303.15 K, x2 = 0.6005
  surface tension liquid-gas: 20.46 ± 0.27 mN/m
303.15 K, x2 = 0.7067
  surface tension liquid-gas: 19.98 ± 0.27 mN/m
303.15 K, x2 = 0.8043
  surface tension liquid-gas: 19.58 ± 0.27 mN/m
303.15 K, x2 = 0.9047
  surface tension liquid-gas: 19.22 ± 0.26 mN/m
303.15 K, x2 = 0.9486
  surface tension liquid-gas: 19.14 ± 0.26 mN/m
303.15 K, x2 = 0.0514
  mass density: 811.7 ± 0.47 kg/m3
303.15 K, x2 = 0.1001
  mass density: 805.43 ± 0.47 kg/m3
303.15 K, x2 = 0.2015
  mass density: 792.09 ± 0.49 kg/m3
303.15 K, x2 = 0.3082
  mass density: 777.49 ± 0.51 kg/m3
303.15 K, x2 = 0.4054
  mass density: 763.85 ± 0.53 kg/m3
303.15 K, x2 = 0.517
  mass density: 747.87 ± 0.55 kg/m3
303.15 K, x2 = 0.6305
  mass density: 731.38 ± 0.58 kg/m3
303.15 K, x2 = 0.7114
  mass density: 719.37 ± 0.59 kg/m3
303.15 K, x2 = 0.8136
  mass density: 703.84 ± 0.61 kg/m3
303.15 K, x2 = 0.9061
  mass density: 689.61 ± 0.63 kg/m3
303.15 K, x2 = 0.9518
  mass density: 682.59 ± 0.64 kg/m3
308.15 K, x2 = 0.0562
  surface tension liquid-gas: 24.54 ± 0.29 mN/m
308.15 K, x2 = 0.1017
  surface tension liquid-gas: 24.05 ± 0.29 mN/m
308.15 K, x2 = 0.2078
  surface tension liquid-gas: 22.86 ± 0.28 mN/m
308.15 K, x2 = 0.3065
  surface tension liquid-gas: 21.92 ± 0.28 mN/m
308.15 K, x2 = 0.4117
  surface tension liquid-gas: 21.11 ± 0.27 mN/m
308.15 K, x2 = 0.5064
  surface tension liquid-gas: 20.53 ± 0.27 mN/m
308.15 K, x2 = 0.6065
  surface tension liquid-gas: 20 ± 0.27 mN/m
308.15 K, x2 = 0.7081
  surface tension liquid-gas: 19.61 ± 0.27 mN/m
308.15 K, x2 = 0.8
  surface tension liquid-gas: 19.27 ± 0.26 mN/m
308.15 K, x2 = 0.9028
  surface tension liquid-gas: 18.88 ± 0.26 mN/m
308.15 K, x2 = 0.9483
  surface tension liquid-gas: 18.82 ± 0.26 mN/m
308.15 K, x2 = 0.0514
  mass density: 808.16 ± 0.47 kg/m3
308.15 K, x2 = 0.1001
  mass density: 801.85 ± 0.48 kg/m3
308.15 K, x2 = 0.2015
  mass density: 788.43 ± 0.5 kg/m3
308.15 K, x2 = 0.3082
  mass density: 773.75 ± 0.52 kg/m3
308.15 K, x2 = 0.4054
  mass density: 760.1 ± 0.54 kg/m3
308.15 K, x2 = 0.517
  mass density: 743.94 ± 0.56 kg/m3
308.15 K, x2 = 0.6305
  mass density: 727.36 ± 0.58 kg/m3
308.15 K, x2 = 0.7114
  mass density: 715.28 ± 0.6 kg/m3
308.15 K, x2 = 0.8136
  mass density: 699.65 ± 0.62 kg/m3
308.15 K, x2 = 0.9061
  mass density: 685.35 ± 0.64 kg/m3
308.15 K, x2 = 0.9518
  mass density: 678.3 ± 0.65 kg/m3

From the NIST ThermoML archive (doi:10.1021/je060179e)
